Results reported in patent publication EP4631940A1, “COMPOUND TARGETING PAN-KRAS PROTEIN DEGRADATION AGENT AND USE THEREOF” (Betta Pharmaceuticals Co., Ltd., priority 2022, dated 2024).
Read-outs that look alike come from different tables or passages of the source.

Key:
AGS = assay: Cell proliferation experiment (CellTiter-Glo); format: cell-based; conditions: read-out: IC50(nM) AGS
SW620 = assay: Cell proliferation experiment (CellTiter-Glo); format: cell-based; conditions: read-out: IC50(nM) SW620
HCT116 = assay: Cell proliferation experiment (CellTiter-Glo); format: cell-based; conditions: Homo sapiens, HCT-116; HCT116, KRAS mutation type G13D; 96 h incubation
H1975 = assay: Cell proliferation experiment (CellTiter-Glo); format: cell-based; conditions: Homo sapiens, NCI-H1975; H1975, KRAS WT; 96 h incubation
in vitro [1] = conditions: dog, microsomes
KRAS G12D [2] = target: T1, KRAS G12D (Homo sapiens, UniProt P01116, G12D)
PK59 = assay: Cell proliferation experiment (CellTiter-Glo); format: cell-based; conditions: PK-59; PK59, KRAS mutation type G12D; 96 h incubation
in vitro [3] = conditions: mouse, microsomes
KRAS G12D [4] = target: T1, KRAS G12D; assay: cell-based; conditions: AGS
in vitro [5] = conditions: human, microsomes
in vitro [6] = conditions: rat, microsomes
PK-59 cells = assay: Anti-tumor effects in a human pancreatic cancer xenograft model carrying KRAS^G12D mutation; format: in vivo, BALB/c Nude Crlj mice; conditions: PK-59 xenograft; for TGI After 4 Weeks of Administration (%): tail vein
[7] = PK study in Beagle dogs (plasma); format: in vivo; conditions: IV 1 mg/kg; for AUC(0-t) / C0 / half-life: dog
Method: Example 10 PK Study of Compound 135 in Beagle Dogs
(§1) Compound 135 was mixed with the vehicle (10% DMSO / 5% Solutol HS 15 / 85% saline), vortexed, and sonicated to prepare a clear solution at 0.5 mg/mL. Beagle dogs weighing approximately 10 kg (equal number of males and females, non-fasted) were intravenously administered the compound. Plasma was collected at specified time points. Drug concentration was analyzed by LC-MS/MS, and pharmacokinetic parameters were calculated using Phoenix WinNonlin software (Pharsight Corporation, USA). Table 13 Beagle Dog PK Data for Intravenous Compound Monotherapy

KRAS G12V = target: T2, KRAS G12V (Homo sapiens, UniProt P01116, G12V); assay: Western blot study of KRAS degradation in SW620 cells; format: cell-based; conditions: 3 h incubation
T2 construct: endogenous in cells; host or cells: SW620

[8] = PK study in ICR mice (plasma); format: in vivo; conditions: Female ICR mice, IV 1 mg/kg; for AUC(0-t) / C0 / half-life: mouse
Method: Example 9 PK Study of Compound in ICR Mice (plasma)
as §1, with “The compound” for “Compound 135”, “0.2” for “0.5”, “Female ICR mice aged 6 to 7 weeks (non-fasted)” for “Beagle dogs weighing approximately 10 kg (equal number of males and females, non-fasted)”, “12 Mouse” for “13 Beagle Dog”

KRAS G12D [9] = target: T1, KRAS G12D; assay: Western blot study of KRAS degradation in AGS cells; format: cell-based; parameters: endogenous in cells; host or cells: AGS; conditions: 3 h incubation
H358 = assay: Cell proliferation experiment (CellTiter-Glo); format: cell-based; conditions: Homo sapiens, NCI-H358; H358, KRAS mutation type G12C; 96 h incubation
KRAS G13D = target: T3, KRAS G13D (Homo sapiens, UniProt P01116, G13D); assay: Western blot study of KRAS degradation in HCT116 cells; format: cell-based; conditions: 3 h incubation
T3 construct: endogenous in cells; host or cells: HCT116

[10] = Metabolic stability in liver microsomes (NADPH); conditions: Mouse; 0.5 mg/mL liver microsomes, NADPH, 37°C
[11] = Metabolic stability in liver microsomes (NADPH); conditions: Rat; 0.5 mg/mL liver microsomes, NADPH, 37°C
[12] = Metabolic stability in liver microsomes (NADPH); conditions: Human; 0.5 mg/mL liver microsomes, NADPH, 37°C
[13] = Metabolic stability in liver microsomes (NADPH); conditions: Dog; 0.5 mg/mL liver microsomes, NADPH, 37°C
[14] = PK study in ICR mice (whole blood); format: in vivo; conditions: Female ICR mice, IV 1 mg/kg
Method: Example 8 PK Study of Compound in ICR Mice (whole blood)
as §1, with “The compound” for “Compound 135”, “0.2” for “0.5”, “Female ICR mice aged 6 to 7 weeks (non-fasted)” for “Beagle dogs weighing approximately 10 kg (equal number of males and females, non-fasted)”, “Whole blood” for “Plasma”, “11 Mouse” for “13 Beagle Dog”

| Molecule | IC50 (AGS; Homo sapiens, AGS, 96 h) [nM] | IC50 (SW620; Homo sapiens, SW-620, 96 h) [nM] | IC50 (HCT116) [nM] | IC50 (H1975) [nM] | microsomal CLint (in vitro [1]) [µL/min/mg] | DC50 (KRAS G12D [2]) [µM] | IC50 (PK59) [nM] | microsomal CLint (in vitro [3]) [µL/min/mg] | Dmax (KRAS G12D [4]) [%] | microsomal CLint (in vitro [5]) [µL/min/mg] | microsomal CLint (in vitro [6]) [µL/min/mg] | TGI After 4 Weeks of Administration (%) (PK-59 cells; 1 mg/kg, QW) | TGI After 4 Weeks of Administration (%) (PK-59 cells; 3 mg/kg, QW) | TGI After 4 Weeks of Administration (%) (PK-59 cells; 10 mg/kg, QW) | Cl_obs [7] [mL/min/kg] | Cl_obs [8] [mL/min/kg] | Vss_obs [8] [L/kg] | AUC(0-t) [8] [ng·h/mL] | C0 [8] [ng/mL] | half-life [8] [h] | also measured |
| --- | --- | --- | --- | --- | --- | --- | --- | --- | --- | --- | --- | --- | --- | --- | --- | --- | --- | --- | --- | --- | --- |
| CCc1c(F)ccc2cc(O)cc(-c3ncc4c(N5CCC[C@@](C)(O)C5)nc(OCC5(CN6CCC7(CC6)CN(c6ccc(-c8cn([C@H](C(=O)N9C[C@H](O)C[C@H]9C(=O)N[C@@H](C)c9ccc(-c%10scnc%10C)cc9)C(C)C)nn8)cn6)C7)CC5)nc4c3F)c12 [Compound 118] | 13 | 26 | 37 | > 10000 | 17.2 | 0.011 | 12.2 | 11.4 | 95 | 21.3 | 3.4 | – | – | – | – | – | – | – | – | – | – |
| CCc1c(F)ccc2cc(O)cc(-c3ncc4c(N5CCC[C@@](C)(O)C5)nc(OCC5(CN6CCC(Oc7cnc(-c8cn([C@H](C(=O)N9C[C@H](O)C[C@H]9C(=O)N[C@@H](C)c9ccc(-c%10scnc%10C)cc9)C(C)C)nn8)cn7)CC6)CC5)nc4c3F)c12 [Compound 144] | 3 | 8.4 | 13 | > 10000 | 7.4 | 0.0011 | 4.4 | 10.9 | 95 | 18.8 | 6.2 | 82 | 93 | 113 | 6.19 | 5.81 | 1.54 | 2730 | 5530 | 9.34 | Vss_obs [7]: 3.46 L/kg; AUC(0-t) [7]: 2520 ng·h/mL; C0 [7]: 9890 ng/mL; half-life [7]: 20.5 h; KRAS G12V protein degradation (Western blot, Fig. 5) (KRAS G12V): effectively degraded; KRAS G12D protein degradation (Western blot, Fig. 5) (KRAS G12D [9]): effectively degraded; IC50 (H358): 5 nM; KRAS G13D protein degradation (Western blot, Fig. 5) (KRAS G13D): effectively degraded |
| (2S,4R)-1-((S)-2-(5-(((3S,7aS)-7a-(((7-(8-ethyl-7-fluoro-3-hydroxynaphthalen-1-yl)-8-fluoro-4-( (R)-3-hydroxy-3-methylpiperidin-1-yl)pyrido[4,3-d]pyrimidin-2-yl)oxy)methyl)-6-methylenehex ahydro-1H-pyrrolidin-3-yl)methoxy)methyl)-1H-1,2,3-triazol-1-yl)-3-methylbutanoyl)-4-hydrox y-N-(((S)-1-(4-(4-methylthiazol-5-yl)phenyl)ethyl)pyrrolidine-2-carboxamide [Compound 120] | – | – | – | – | – | 0.011 | – | – | – | – | – | – | – | – | – | – | – | – | – | – | IC50 (AGS): 12 nM; IC50 (SW620): 102 nM; The in vitro intrinsic clearance in liver microsomes (CLint, in vitro, µL/min/mg protein) Mouse [10]: 48.5 µL/min/mg protein; The in vitro intrinsic clearance in liver microsomes (CLint, in vitro, µL/min/mg protein) Rat [11]: 9.3 µL/min/mg protein; The in vitro intrinsic clearance in liver microsomes (CLint, in vitro, µL/min/mg protein) Human [12]: 128 µL/min/mg protein; Dmax (%) (KRAS G12D [2]): 95%; The in vitro intrinsic clearance in liver microsomes (CLint, in vitro, µL/min/mg protein) Dog [13]: 113 µL/min/mg protein |
| CCc1c(F)ccc2cc(O)cc(-c3ncc4c(N5CCC[C@@](C)(O)C5)nc(OCC5(CN6CCC7(CC6)CC(c6cn([C@H](C(=O)N8C[C@H](O)C[C@H]8C(=O)N[C@@H](C)c8ccc(-c9scnc9C)cc8)C(C)C)nn6)C7)CC5)nc4c3F)c12 [Compound 73, (2S,4R)-1-((S)-2-(4-(7-((1-((7-(8-ethyl-7-fluoro-3-hydroxynaphthalen-1-yl)-8-fluoro-4-(((R)-3-hydroxy-3-methylpiperidin-1-yl)pyrido[4,3-d]pyrimidin-2-yl)oxy)methyl)cyclopropyl)methyl)-7-azaspiro[3.5]nonan-2-yl)-1H-1,2,3-triazol-1-yl)-3-methylbutanoyl)-4-hydroxy-N-((S)-1-(4-(4-methylthiazol-5-yl)phenyl)ethyl)pyrrolidine-2-carboxamide] | – | – | – | – | – | 0.017 | – | – | – | – | – | – | – | – | – | – | – | – | – | – | IC50 (AGS): 22 nM; IC50 (SW620): 81 nM; The in vitro intrinsic clearance in liver microsomes (CLint, in vitro, µL/min/mg protein) Mouse [10]: 7.1 µL/min/mg protein; AUClast [14]: 2051 ng·h/mL; C0 [14]: 3008 ng/mL; t1/2 [14]: 5.07 h; Cl_obs ([14]; 1 mg/kg): 7.97 mL/min/kg; Vss_obs ([14]; 1 mg/kg): 1.91 L/kg; The in vitro intrinsic clearance in liver microsomes (CLint, in vitro, µL/min/mg protein) Rat [11]: 9.8 µL/min/mg protein; The in vitro intrinsic clearance in liver microsomes (CLint, in vitro, µL/min/mg protein) Human [12]: 13.8 µL/min/mg protein; Dmax (%) (KRAS G12D [2]): 95%; The in vitro intrinsic clearance in liver microsomes (CLint, in vitro, µL/min/mg protein) Dog [13]: 18.9 µL/min/mg protein |
| CCc1c(F)ccc2cc(O)cc(-c3ncc4c(N5CCC[C@@](C)(O)C5)nc(OCC5(CN6CCC(Oc7ccc(-c8cn([C@H](C(=O)N9C[C@H](O)C[C@H]9C(=O)N[C@@H](C)c9ccc(-c%10scnc%10C)cc9)C(C)C)nn8)cn7)CC6)CC5)nc4c3F)c12 [Compound 135] | 5.2 | 39 | 33 | > 10000 | 26.9 | 0.014 | 14.7 | 13.2 | 95 | 11.3 | 1.5 | 70 | 92 | 106 | 5.74 | 5.80 | 1.61 | 2750 | 5840 | 6.92 | TGI After 4 Weeks of Administration (%) (PK-59 cells; 20 mg/kg, Q2W): 101%; TGI at 20 mg/kg once every two weeks versus 10 mg/kg once weekly (PK-59 cells; 4 weeks of administration): comparable TGI; Vss_obs [7]: 2.23 L/kg; AUC(0-t) [7]: 2780 ng·h/mL; C0 [7]: 11000 ng/mL; half-life [7]: 21.4 h; IC50 (H358): 7.3 nM |
| CCc1c(F)ccc2cc(O)cc(-c3ncc4c(N5CCC[C@@](C)(O)C5)nc(OCC5(CN6CCN(c7ccc(-c8cn([C@H](C(=O)N9C[C@H](O)C[C@H]9C(=O)N[C@@H](C)c9ccc(-c%10scnc%10C)cc9)C(C)C)nn8)cn7)CC6)CC5)nc4c3F)c12 [Compound 142] | 10 | – | – | – | 14.2 | 0.0063 | – | 17.7 | 95 | 11.1 | – | – | – | – | – | 7.32 | 0.854 | 2300 | 9460 | 4.1 | The in vitro intrinsic clearance in liver microsomes (CLint, in vitro, µL/min/mg protein) Rat: 0.0 µL/min/mg protein |
